According to patent publication US20240051937A1, “ISOINDOLINONE AMIDE COMPOUNDS USEFUL TO TREAT DISEASES ASSOCIATED WITH GSPT1” (Monte Rosa Therapeutics, Inc., priority 2021, published 2024):
Where two headings read alike, the source gives them in different places.

Experiments:
Format in all cases: cell-based
GSPT1 [1] = molecular target: T1, GSPT1 (Homo sapiens, UniProt P15170+Q96SW2); experiment: Immunofluorescence assay for GSPT1 degradation in CAL-Si cells; set-up: CAL-Si cells were purchased from DSMZ (cat. Number ACC302); host or cells: CAL-Si (CAL-51) cells; conditions: 6 hours treatment
Method: The representative compounds were tested in an immunofluorescence assay for their activity to bind to degrade GSPT1. CAL-Si cells were purchased from DSMZ (cat. Number ACC302), sub-cultured in 90% Dulbecco's MEM (4.5 g/L glucose, Gibco 11965)+10% […] inactivated FBS (BioConcept, 2-01F136I) and incubated at 37° C., 5% CO2. For the assay, imaging microtiterplate Cell Carrier 96 Ultra (Perkin Elmer 6055302) were pre-coated with Fibronectin (Sigma F085, 30 μl at 0.2 μg/ml) in PBS (100 μl, Gibco 14190) for 45 min at room temperature, rinsed with PBS and CAL-Si cells (30K cells/well) were plated and let to adhere overnight. Cells were treated with compounds typically using a serial dilution ranging from 30 μM to 0.1 nM for 6 hours. Compounds were stored at 10 mM DMSO stocks. Vehicle (DMSO), positive (CC-885, 10 μM) and rescue controls (positive control plus 0.2 μM bortezomib) were also included at this stage. Cells were subsequently rinsed with PBS and fixed in 10% Formalin solution (50 μl, Sigma HT5011)) for 20 mins at room temperature. Following three consecutive PBS washes (100 μl), cells were permeabilized in 0.1% Triton X-100 in PBS (Sigma 93443, 50 μl) for 15 mins at room temperature. Following three further PBS washes, […] blocking buffer (1% BSA, Sigma A4503, in PBS) was added for 45 min for signal-to-noise reduction.
Primary antibody (human GSPT1, Sigma HPA052488) was diluted in blocking buffer (dil.1/300, 35 μl/well) and incubated with the cells overnight at 4° C. After three PBS washes, Alexa-fluor 488 coupled secondary antibodies (Invitrogen, A32731, dil.1/1000), Alexa-fluor 647-Phalloidin (Invitrogen, A22287, dil.1/200) and DAPI (Thermo, #62248, dil.1/1000) were diluted in blocking buffer and incubated with the samples for 2 hours at room temperature. After three final PBS washes, samples were conserved in […] PBS in the dark, until measurement. Image acquisition was performed on the Operetta High-Content Imager (Perkin-Elmer). Fluorescence intensity of Alexa-Fluor 488 (GSPT1), Alexa-Fluor 647 (Actin) and DAPI (Nucleus) were measured. For the determination of GSPT1 DC50 values, a custom algorithm implemented in the PerkinElmer image analysis software Harmony-Acapella® was developed. After user-defined setting of adjustment parameters, the analysis was run identically without human intervention for all image fields. DAPI staining of the nuclei was used to determine the location of cells using standard nuclei detection modules. Segmentation artifacts were removed by threshold-based filters for area, roundness and intensity. The outline of the cells was determined analogously from the sum of the normalized, smoothed DAPI and Actin channel, starting from each nucleus.
The Alexa-Fluor 488 (GSPT1) signal intensity in each cell was finally measured, in order to obtain a Mean intensity per cell. GSPT1 degradation (DC50) was calculated after normalization to controls and data import in CDD vault Database, using non-linear regression.

CK1alpha = molecular target: T2, CK1alpha (Homo sapiens, UniProt P48729+Q96SW2); experiment: Selectivity determination by Western blot assay in MM1S cells: CK1alpha; conditions: MM1S cells, 0.3, 3 and 30 μM, 6 hours
T2 construct: MM1S cells were purchased from ATCC (cat. Number CRL-2974); host or cells: MM1S cells
Method: (§1) MM1S cells were purchased from ATCC (cat. Number CRL-2974), sub-cultured in […] RPMI 1640 with 10% FBS, supplemented with Ix P/S and incubated at 37° C., […]. Compounds were stored as 10 mM DMSO stock. For the assay, MM1S cells (3 million cells/well) were plated in 6-well plates and incubated over night. Cells were treated with respective compounds using a serial dilution: 0.3 μM, 3 μM and 30 μM as well as a vehicle only (DMSO) control for 6 hours. Media with suspension cells was subsequently transferred to 15 mL conical tubes, wells rinsed twice with ice-cold PBS and merged with cell suspension in respective 15 mL conical tube. Cells were spinned down, supernatant aspirated, pellets resuspended in ice-cold PBS and transferred to microtubes. Cells were spinned down, supernatant aspirated and pellets resuspended in 120 μL RIPA lysis buffer supplemented with protease and phosphatase inhibitors. Cell lysates were incubated on ice for 20 minutes followed by centrifugation at >20,000×g for 5 min. Supernatants were transferred to fresh microtubes and stored at −80° C. Total protein concentration was determined using a BCA assay with a BSA standard curve and concentration of all samples was adjusted to 1 mg/mL. […] Chemiluminescence signals were then detected using a LAS-4000 system with default settings and signals quantified using Image Studio Lite software (version 5.2). […]

GSPT1 [2] = molecular target: T1, GSPT1; experiment: Selectivity determination by Western blot assay in MM1S cells: GSPT1; set-up: MM1S cells were purchased from ATCC (cat. Number CRL-2974); host or cells: MM1S cells; conditions: MM1S cells, 0.3, 3 and 30 μM, 6 hours
Method: as §1

ZFP91 = molecular target: T3, ZFP91 (Homo sapiens, UniProt Q96JP5+Q96SW2); experiment: Selectivity determination by Western blot assay in MM1S cells: ZFP91; conditions: MM1S cells, 0.3, 3 and 30 μM, 6 hours
T3 construct: MM1S cells were purchased from ATCC (cat. Number CRL-2974); host or cells: MM1S cells
Method: as §1

[3] = read-out: Code: activity for GSPT1 degradation (DC50)
[4] = GSPT1 degradation, read-out: DC50

T1 sequence (P15170 whole entry): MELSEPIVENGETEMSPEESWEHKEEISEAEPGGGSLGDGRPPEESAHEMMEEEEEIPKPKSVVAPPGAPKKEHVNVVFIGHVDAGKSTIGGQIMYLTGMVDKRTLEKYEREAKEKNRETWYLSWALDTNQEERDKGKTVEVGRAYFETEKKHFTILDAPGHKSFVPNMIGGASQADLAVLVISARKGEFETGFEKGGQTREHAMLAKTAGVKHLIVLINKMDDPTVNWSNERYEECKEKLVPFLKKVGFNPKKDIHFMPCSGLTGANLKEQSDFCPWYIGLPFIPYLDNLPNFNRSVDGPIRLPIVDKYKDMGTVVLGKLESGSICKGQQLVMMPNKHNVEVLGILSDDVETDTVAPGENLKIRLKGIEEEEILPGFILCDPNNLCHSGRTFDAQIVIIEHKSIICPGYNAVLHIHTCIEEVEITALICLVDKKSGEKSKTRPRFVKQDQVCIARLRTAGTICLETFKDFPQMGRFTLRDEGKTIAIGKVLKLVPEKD
T1 sequence (Q96SW2 whole entry): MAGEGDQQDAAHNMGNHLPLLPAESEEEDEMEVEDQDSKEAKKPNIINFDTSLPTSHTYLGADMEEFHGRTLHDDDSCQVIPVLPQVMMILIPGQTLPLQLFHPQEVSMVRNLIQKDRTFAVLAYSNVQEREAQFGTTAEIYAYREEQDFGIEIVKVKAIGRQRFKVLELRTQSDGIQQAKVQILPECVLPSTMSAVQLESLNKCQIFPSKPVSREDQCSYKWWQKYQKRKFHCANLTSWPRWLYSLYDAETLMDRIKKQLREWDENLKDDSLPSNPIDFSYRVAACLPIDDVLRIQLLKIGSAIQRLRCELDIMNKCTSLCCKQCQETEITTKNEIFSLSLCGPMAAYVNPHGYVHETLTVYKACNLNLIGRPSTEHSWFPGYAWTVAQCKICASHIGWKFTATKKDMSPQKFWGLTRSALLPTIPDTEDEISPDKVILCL
T1 sequence (Q16531 whole entry partner): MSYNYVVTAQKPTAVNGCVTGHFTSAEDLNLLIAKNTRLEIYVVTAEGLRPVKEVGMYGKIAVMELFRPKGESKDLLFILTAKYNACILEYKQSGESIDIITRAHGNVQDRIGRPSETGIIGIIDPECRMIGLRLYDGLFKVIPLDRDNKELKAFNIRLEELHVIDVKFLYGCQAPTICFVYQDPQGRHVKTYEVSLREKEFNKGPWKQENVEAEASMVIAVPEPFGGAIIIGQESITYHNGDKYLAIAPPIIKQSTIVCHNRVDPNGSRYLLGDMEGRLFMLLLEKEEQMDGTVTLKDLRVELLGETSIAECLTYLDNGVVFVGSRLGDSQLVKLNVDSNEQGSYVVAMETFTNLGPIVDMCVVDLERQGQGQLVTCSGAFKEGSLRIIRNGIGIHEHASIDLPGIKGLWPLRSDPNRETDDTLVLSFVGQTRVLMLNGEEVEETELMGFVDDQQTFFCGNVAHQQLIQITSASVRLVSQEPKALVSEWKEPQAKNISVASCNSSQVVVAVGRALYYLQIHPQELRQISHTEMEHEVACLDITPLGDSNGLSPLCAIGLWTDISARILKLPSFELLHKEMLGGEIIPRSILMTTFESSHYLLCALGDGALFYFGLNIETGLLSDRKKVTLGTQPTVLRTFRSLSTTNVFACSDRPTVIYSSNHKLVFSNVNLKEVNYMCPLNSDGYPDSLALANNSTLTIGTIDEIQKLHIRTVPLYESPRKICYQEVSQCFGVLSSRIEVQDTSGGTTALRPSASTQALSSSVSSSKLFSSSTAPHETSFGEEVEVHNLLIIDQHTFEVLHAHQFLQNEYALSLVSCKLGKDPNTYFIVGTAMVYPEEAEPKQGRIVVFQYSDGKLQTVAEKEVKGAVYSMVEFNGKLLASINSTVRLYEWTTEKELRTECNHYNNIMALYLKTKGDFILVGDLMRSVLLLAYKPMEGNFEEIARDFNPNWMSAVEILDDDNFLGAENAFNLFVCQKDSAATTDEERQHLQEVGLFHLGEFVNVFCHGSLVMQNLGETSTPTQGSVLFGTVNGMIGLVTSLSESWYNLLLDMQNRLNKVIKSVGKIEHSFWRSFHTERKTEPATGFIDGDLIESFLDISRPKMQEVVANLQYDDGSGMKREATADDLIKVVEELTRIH
T2 sequence (P48729 whole entry): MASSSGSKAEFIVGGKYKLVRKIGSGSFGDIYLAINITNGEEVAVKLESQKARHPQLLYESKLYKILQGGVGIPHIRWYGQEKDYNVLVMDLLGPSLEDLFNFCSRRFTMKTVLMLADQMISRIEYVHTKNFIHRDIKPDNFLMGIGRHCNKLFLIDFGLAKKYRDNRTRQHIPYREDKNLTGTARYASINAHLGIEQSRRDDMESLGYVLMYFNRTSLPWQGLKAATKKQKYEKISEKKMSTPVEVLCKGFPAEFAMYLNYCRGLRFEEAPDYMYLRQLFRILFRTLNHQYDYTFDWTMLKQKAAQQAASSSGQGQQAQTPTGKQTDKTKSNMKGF
T2 sequence (Q96SW2 whole entry): as the sequence (Q96SW2 whole entry) above
T2 sequence (Q16531 whole entry partner): as the sequence (Q16531 whole entry partner) above
T3 sequence (Q96JP5 2-570 limits assumed): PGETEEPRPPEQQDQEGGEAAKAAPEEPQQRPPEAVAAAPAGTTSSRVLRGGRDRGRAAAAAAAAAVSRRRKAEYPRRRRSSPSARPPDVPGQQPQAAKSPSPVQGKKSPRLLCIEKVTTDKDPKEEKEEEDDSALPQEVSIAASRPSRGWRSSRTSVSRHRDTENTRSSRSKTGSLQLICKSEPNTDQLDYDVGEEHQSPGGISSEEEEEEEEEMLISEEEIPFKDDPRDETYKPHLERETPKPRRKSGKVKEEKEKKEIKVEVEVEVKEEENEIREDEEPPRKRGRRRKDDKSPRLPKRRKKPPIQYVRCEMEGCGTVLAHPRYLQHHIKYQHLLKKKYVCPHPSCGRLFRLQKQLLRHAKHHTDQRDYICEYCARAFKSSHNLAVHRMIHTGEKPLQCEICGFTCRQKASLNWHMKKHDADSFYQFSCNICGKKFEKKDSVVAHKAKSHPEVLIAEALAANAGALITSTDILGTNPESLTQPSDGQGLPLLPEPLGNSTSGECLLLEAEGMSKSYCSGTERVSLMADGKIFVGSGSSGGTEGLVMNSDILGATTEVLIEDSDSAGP
T3 sequence (Q96SW2 whole entry): as the sequence (Q96SW2 whole entry) above
T3 sequence (Q16531 whole entry partner): as the sequence (Q16531 whole entry partner) above

DC50 (GSPT1 [1]; [3]) [nM] | DC50 (GSPT1 [1]; [4]) [nM] | Compound | CK1alpha degradation code (CK1alpha) | GSPT1 degradation code (GSPT1 [2]) | ZFP91 degradation code (ZFP91)
≤ 30 | 6 | Cc1c(Cl)cc(NC(=O)CCc2ccc3c(c2)C(=O)N(C2CCC(=O)NC2=O)C3)cc1CN1CCOCC1 (stereo not shown) [Compound 2] | C (C represents weak degradation at 30 μM (below 50%)) | F (F represents degradation at 0.3 μM (>90%)) | C (C represents weak degradation at 30 μM (below 50%))
≤ 30 | 16 | Cc1ccc(NC(=O)CCc2ccc3c(c2)C(=O)N(C2CCC(=O)NC2=O)C3)cc1Cl (stereo not shown) [Compound 1] | B (B represents trace degradation at 30 μM (below 20%)) | F (F represents degradation at 0.3 μM (>90%)) | B (B represents trace degradation at 30 μM (below 20%))
